From patent publication US9708314B2, “Heterocyclic amide compound” (NISSAN CHEMICAL INDUSTRIES, LTD., priority 2013, dated 2017)

Assays:
Assay type in all cases: in vivo
[1] = tested on: Avena fatua; assay: Test Example 4: herbicidal effect by application to foliage (diluvial soil, plastic box); conditions: for I (Avena fatua) herbicidal effect: application to foliage, application herbicide amount 320 g/ha; for I: Application herbicide amount 320 g/ha
Outline: (§1)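 Scores run from 0 (herbicidal ratio ≤5%) to 5 (≥90%, almost fully withered) and were assessed three weeks after foliar spraying. Seedlings had been raised for 14 days at 25-30° C in sterilized diluvial soil before treatment, with the emulsion diluted in water to the stated g/ha dose.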

[2] = tested on: Apera spica-venti.; assay: as above; conditions: for L (Apera spica-venti.) herbicidal effect: application to foliage, application herbicide amount 320 g/ha; for L: Application herbicide amount 320 g/ha
Outline: as §1

[3] = tested on: Lolium multiflorum Lam.; assay: as above; conditions: for K (Lolium multiflorum Lam.) herbicidal effect: application to foliage, application herbicide amount 320 g/ha; for K: Application herbicide amount 320 g/ha
Outline: as §1

[4] = tested on: Galium spurium; assay: as above; conditions: for Q (Galium spurium) herbicidal effect: application to foliage, application herbicide amount 320 g/ha; for Q: Application herbicide amount 320 g/ha
Outline: as §1

[5] = tested on: Veronica persica; assay: as above; conditions: for R (Veronica persica) herbicidal effect: application to foliage, application herbicide amount 320 g/ha; for R: Application herbicide amount 320 g/ha
Outline: as §1

[6] = tested on: Digitaria ciliaris; assay: as above; conditions: for F (Digitaria ciliaris) herbicidal effect: application to foliage, application herbicide amount 320 g/ha; for F: Application herbicide amount 320 g/ha
Outline: as §1

[7] = tested on: Echinochloa crus-galli var. crus-galli; assay: as above; conditions: for H (Echinochloa crus-galli var. crus-galli) herbicidal effect: application to foliage, application herbicide amount 320 g/ha; for H: Application herbicide amount 320 g/ha
Outline: as §1

[8] = tested on: Abutilon theophrasti; assay: as above; conditions: for M (Abutilon theophrasti) herbicidal effect: application to foliage, application herbicide amount 320 g/ha; for M: Application herbicide amount 320 g/ha
Outline: as §1

[9] = tested on: Alopecurus myosuroides; assay: as above; conditions: for J (Alopecurus myosuroides) herbicidal effect: application to foliage, application herbicide amount 320 g/ha; for J: Application herbicide amount 320 g/ha
Outline: as §1

[10] = tested on: Setaria viridis; assay: as above; conditions: for G (Setaria viridis) herbicidal effect: application to foliage, application herbicide amount 320 g/ha; for G: Application herbicide amount 320 g/ha
Outline: as §1

[11] = tested on: Chenopodium album; assay: as above; conditions: for O (Chenopodium album) herbicidal effect: application to foliage, application herbicide amount 320 g/ha; for O: Application herbicide amount 320 g/ha
Outline: as §1

[12] = tested on: Cyperus difformis; assay: Test Example 3: herbicidal effect by application to foliage (Wagner pot, water depth 0.1-0.5 cm); conditions: Nineteenth Table, application herbicide amount 320 g/ha; for E (herbicidal effect grade): application to foliage
Outline: (§2)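 Foliar spray, 14-day-old plants, emulsion diluted to target g/ha; rated 3 wk post-application, 0–5 scale (0 ≤5%, 5 ≥90% herbicidal ratio). Greenhouse 25–30 °C, alluvial soil.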

[13] = tested on: Echinochloa crus-galli var. crus-galli; assay: as above; conditions: Nineteenth Table, application herbicide amount 320 g/ha; for H (herbicidal effect grade): application to foliage
Outline: as §2

[14] = tested on: Leptochloa chinensis; assay: as above; conditions: Nineteenth Table, application herbicide amount 320 g/ha; for D (herbicidal effect grade): application to foliage
Outline: as §2

Row | Structure (SMILES) | I (Avena fatua) herbicidal effect [1] | L (Apera spica-venti.) herbicidal effect [2] | K (Lolium multiflorum Lam.) herbicidal effect [3] | Q (Galium spurium) herbicidal effect [4] | R (Veronica persica) herbicidal effect [5] | F (Digitaria ciliaris) herbicidal effect [6] | H (Echinochloa crus-galli var. crus-galli) herbicidal effect [7] | M (Abutilon theophrasti) herbicidal effect [8] | J (Alopecurus myosuroides) herbicidal effect [9] | L [2] | K [3] | Q [4] | F [6] | H [7] | J [9] | G [10] | O [11] | E (herbicidal effect grade) [12] | H (herbicidal effect grade) [13] | D (herbicidal effect grade) [14] | other results
1 | Cc1nnc(NC(=O)c2ccc(C(F)(F)F)n3cnnc23)o1 [1-001] | 1 (Herbicidal ratio of 5% or more and less than 20%) | 1 (Herbicidal ratio of 5% or more and less than 20%) | 1 (Herbicidal ratio of 5% or more and less than 20%) | 4 (Herbicidal ratio of 70% or more and less than 90%) | 4 (Herbicidal ratio of 70% or more and less than 90%) | 4 (Herbicidal ratio of 70% or more and less than 90%) | 4 (Herbicidal ratio of 70% or more and less than 90%) | 3 (Herbicidal ratio of 40% or more and less than 70%) | 1 (Herbicidal ratio of 5% or more and less than 20%) | – | – | – | – | – | – | – | – | – | – | – | G (Setaria viridis) herbicidal effect [10]: 3 (Herbicidal ratio of 40% or more and less than 70%); O (Chenopodium album) herbicidal effect [11]: 5 (Herbicidal ratio of 90% or more (almost completely withered)); E (Cyperus difformis) herbicidal ratio grade [12]: 4 (Herbicidal ratio of 70% or more and less than 90%); H (Echinochloa crus-galli var. crus-galli) herbicidal ratio grade [13]: 5 (Herbicidal ratio of 90% or more (almost completely withered)); D (Leptochloa chinensis) herbicidal ratio grade [14]: 5 (Herbicidal ratio of 90% or more (almost completely withered))
2 | C=CC[S+]([O-])c1nnc2c(C(=O)Nc3nnc(C)o3)ccc(C(F)(F)F)n12 (stereo not drawn) [1-074] | – | – | – | – | – | – | – | – | – | 0 (Herbicidal ratio of 5% or less (almost no effect)) | 0 (Herbicidal ratio of 5% or less (almost no effect)) | 3 (Herbicidal ratio of 40% or more and less than 70%) | 4 (Herbicidal ratio of 70% or more and less than 90%) | 5 (Herbicidal ratio of 90% or more (almost completely withered)) | 0 (Herbicidal ratio of 5% or less (almost no effect)) | 4 (Herbicidal ratio of 70% or more and less than 90%) | 5 (Herbicidal ratio of 90% or more (almost completely withered)) | 3 (Herbicidal ratio of 40% or more and less than 70%) | 5 (Herbicidal ratio of 90% or more (almost completely withered)) | 4 (Herbicidal ratio of 70% or more and less than 90%) | I [1]: 1 (Herbicidal ratio of 5% or more and less than 20%); R [5]: 3 (Herbicidal ratio of 40% or more and less than 70%)
3 | CCOC(=O)Cc1nnc2c(C(=O)Nc3nnc(C)o3)ccc(C(F)(F)F)n12 [1-042] | 2 (Herbicidal ratio of 20% or more and less than 40%) | 2 (Herbicidal ratio of 20% or more and less than 40%) | 0 (Herbicidal ratio of 5% or less (almost no effect)) | 3 (Herbicidal ratio of 40% or more and less than 70%) | 4 (Herbicidal ratio of 70% or more and less than 90%) | 4 (Herbicidal ratio of 70% or more and less than 90%) | 5 (Herbicidal ratio of 90% or more (almost completely withered)) | 4 (Herbicidal ratio of 70% or more and less than 90%) | 0 (Herbicidal ratio of 5% or less (almost no effect)) | – | – | – | – | – | – | – | – | – | – | – | G (Setaria viridis) herbicidal effect [10]: 3 (Herbicidal ratio of 40% or more and less than 70%); O (Chenopodium album) herbicidal effect [11]: 5 (Herbicidal ratio of 90% or more (almost completely withered)); E (Cyperus difformis) herbicidal ratio grade [12]: 4 (Herbicidal ratio of 70% or more and less than 90%); H (Echinochloa crus-galli var. crus-galli) herbicidal ratio grade [13]: 5 (Herbicidal ratio of 90% or more (almost completely withered))
4 | Cc1nnc(NC(=O)c2ccc(C(F)(F)F)n3c(CCS(C)(=O)=O)nnc23)o1 [1-085] | – | – | – | – | – | – | – | – | – | 3 (Herbicidal ratio of 40% or more and less than 70%) | 3 (Herbicidal ratio of 40% or more and less than 70%) | 4 (Herbicidal ratio of 70% or more and less than 90%) | 5 (Herbicidal ratio of 90% or more (almost completely withered)) | 5 (Herbicidal ratio of 90% or more (almost completely withered)) | 3 (Herbicidal ratio of 40% or more and less than 70%) | 5 (Herbicidal ratio of 90% or more (almost completely withered)) | 5 (Herbicidal ratio of 90% or more (almost completely withered)) | 5 (Herbicidal ratio of 90% or more (almost completely withered)) | 5 (Herbicidal ratio of 90% or more (almost completely withered)) | 5 (Herbicidal ratio of 90% or more (almost completely withered)) | R [5]: 5 (Herbicidal ratio of 90% or more (almost completely withered)); M [8]: 5 (Herbicidal ratio of 90% or more (almost completely withered))
5 | Cc1nnc(NC(=O)c2ccc(C(F)(F)F)n3c(C(C)S(C)(=O)=O)nnc23)o1 (stereo not drawn) [1-080] | – | – | – | – | – | – | – | – | – | 5 (Herbicidal ratio of 90% or more (almost completely withered)) | 4 (Herbicidal ratio of 70% or more and less than 90%) | 5 (Herbicidal ratio of 90% or more (almost completely withered)) | 5 (Herbicidal ratio of 90% or more (almost completely withered)) | 5 (Herbicidal ratio of 90% or more (almost completely withered)) | 5 (Herbicidal ratio of 90% or more (almost completely withered)) | 5 (Herbicidal ratio of 90% or more (almost completely withered)) | 5 (Herbicidal ratio of 90% or more (almost completely withered)) | 5 (Herbicidal ratio of 90% or more (almost completely withered)) | 5 (Herbicidal ratio of 90% or more (almost completely withered)) | 5 (Herbicidal ratio of 90% or more (almost completely withered)) | I [1]: 4 (Herbicidal ratio of 70% or more and less than 90%); M [8]: 5 (Herbicidal ratio of 90% or more (almost completely withered))
